This passage reports GI50 and TGI results from PubChem BioAssay (NCI).

“And” between values parts separate entries of the source, which are not always exact repeats. Identical values can stand only once.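 Protocol summary: plate cells (96-well), add compound at 5 concentrations, incubate 48 h, interpolate endpoints linearly. GI50 = concentration required for 50% inhibition of growth. TGI marks complete inhibition of growth.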 Where only a bound is given, the exact number is not on record here.

Some test systems named below: CAKI-1 renal; CCRF-CEM leukemia; HCT-15 colon; HOP-92 NSCLC; K-562 leukemia; NCI-H460 lung; OVCAR-5 ovarian; SF-295 CNS; SK-MEL-5 melanoma; U251 CNS.
Holding throughout (assay): NCI anticancer screen, dose series, 48 h

On to `Cc1cc(NCCN(C(C)C)C(C)C)nc(/N=C(\N)Nc2ccc(Cl)c(C(F)(F)F)c2)n1`, for which the GI50 with CAKI-1 renal is 0.427 µM; in the experiment with CCRF-CEM leukemia, 0.335 µM; with HCT-15 colon, 0.276 µM; in the experiment with HOP-92 NSCLC, 0.163 µM; in the experiment with K-562 leukemia it was 0.191 µM; in the experiment with NCI-H460 lung, 0.463 µM. For the same compound, the GI50 in the experiment with OVCAR-5 ovarian was 2.36 µM; in the experiment with SF-295 CNS it was 0.752 µM; with SK-MEL-5 melanoma, 0.195 µM; with U251 CNS it was 0.194 µM. Also, the TGI turned out to be 1.02 µM with CAKI-1 renal; 1.47 µM with CCRF-CEM leukemia; 0.913 µM in the experiment with HCT-15 colon; 1.01 µM in the experiment with HOP-92 NSCLC; 0.411 µM in the experiment on K-562 leukemia; 1.62 µM in the experiment on NCI-H460 lung. The TGI stood at 5.24 µM in the experiment with OVCAR-5 ovarian, 2.14 µM with SF-295 CNS, 0.492 µM in the experiment on SK-MEL-5 melanoma and 0.4 µM in the experiment with U251 CNS.

Take `N#CCCN(CCCN(CCCN(C(=O)Nc1ccccc1)c1ccccc1)C(=O)Nc1ccccc1)C(=O)Nc1ccccc1`: the GI50 in the experiment with CAKI-1 renal was over 100 µM; in the experiment on CCRF-CEM leukemia, 4.35 µM; in the experiment with OVCAR-5 ovarian, over 100 µM; in the experiment on SF-295 CNS, over 100 µM; with SK-MEL-5 melanoma, over 100 µM. In addition, the TGI is over 100 µM in the experiment on CAKI-1 renal; > 8.75 µM and 43.1 µM in the experiment on CCRF-CEM leukemia; over 100 µM in the experiment on HCT-15 colon; 80.4 µM with HOP-92 NSCLC; over 8.75 µM in the experiment on K-562 leukemia; over 8.75 µM in the experiment on NCI-H460 lung. Moreover, the TGI with OVCAR-5 ovarian, in the experiment on SF-295 CNS, with SK-MEL-5 melanoma and in the experiment with U251 CNS was over 100 µM throughout.

For `O=C(Cn1c(=O)c(-c2ccccc2)nc2ccccc21)Nc1ccc(F)cc1`, the GI50 with CAKI-1 renal is over 100 µM; in the experiment with CCRF-CEM leukemia, 6.46 µM; with HCT-15 colon, over 100 µM; with HOP-92 NSCLC it was 22.5 µM; in the experiment with K-562 leukemia, 35.8 µM; with NCI-H460 lung, over 100 µM. Besides, the GI50 in the experiment on OVCAR-5 ovarian is over 100 µM; in the experiment on SF-295 CNS, over 100 µM; in the experiment with SK-MEL-5 melanoma, 7.38 µM; in the experiment with U251 CNS it was 48 µM. The TGI is over 100 µM with CAKI-1 renal; over 100 µM in the experiment with CCRF-CEM leukemia; over 100 µM with HCT-15 colon; 86.2 µM in the experiment on HOP-92 NSCLC; over 100 µM in the experiment on K-562 leukemia; over 100 µM in the experiment on NCI-H460 lung. The TGI with OVCAR-5 ovarian, with SF-295 CNS, in the experiment with SK-MEL-5 melanoma and in the experiment with U251 CNS was over 100 µM in each case.

For the compound `Cc1ccc(SSc2ccc(C)cc2C(=O)O)c(C(=O)O)c1`, the TGI in the experiment on CAKI-1 renal, in the experiment on CCRF-CEM leukemia, in the experiment with HOP-92 NSCLC, in the experiment with K-562 leukemia, in the experiment on NCI-H460 lung and in the experiment with OVCAR-5 ovarian was over 100 µM throughout. The TGI in the experiment on SF-295 CNS, with SK-MEL-5 melanoma and in the experiment on U251 CNS was over 100 µM in each case.

Turning to `C1=CC=C2NCCCCCCCNC3=CC=CC=CC3=NCCCCCCCN=C2C=C1`, the TGI is over 100 µM in the experiment on CAKI-1 renal; over 100 µM in the experiment on CCRF-CEM leukemia; over 100 µM with HCT-15 colon; 98.6 µM in the experiment with HOP-92 NSCLC; over 100 µM with K-562 leukemia; over 100 µM in the experiment with NCI-H460 lung. The TGI in the experiment on OVCAR-5 ovarian and in the experiment on SF-295 CNS was over 100 µM each time.

Turning to `c1ccc(CN2CCC3(CC2)SSC2(CCN(Cc4ccccc4)CC2)S3)cc1`, the TGI in the experiment on CAKI-1 renal is 85.5 µM; in the experiment on CCRF-CEM leukemia, over 100 µM; in the experiment with HCT-15 colon it was over 100 µM; with HOP-92 NSCLC it was over 100 µM; in the experiment with K-562 leukemia, over 100 µM; in the experiment with NCI-H460 lung, 84.6 µM. For the same compound, the figures for the TGI in the experiment on OVCAR-5 ovarian, in the experiment with SF-295 CNS and in the experiment with U251 CNS were over 100 µM, 83.9 µM and over 100 µM, respectively.

For `O=C1c2cccc(NCCN=Cc3cc([N+](=O)[O-])ccc3O)c2C(=O)c2c(NCCN=Cc3cc([N+](=O)[O-])ccc3O)cccc21`, the GI50 was 0.963 µM in the experiment on CCRF-CEM leukemia; 30.3 µM in the experiment on HCT-15 colon; 3.03 µM with HOP-92 NSCLC; 3.67 µM in the experiment on K-562 leukemia; 31.6 µM in the experiment on OVCAR-5 ovarian; 2.08 µM in the experiment on SF-295 CNS. Also, the GI50 in the experiment with U251 CNS was 2.65 µM. The TGI was 9.89 µM in the experiment with CCRF-CEM leukemia; over 100 µM with HCT-15 colon; 84.1 µM with HOP-92 NSCLC; over 100 µM with K-562 leukemia; over 100 µM in the experiment on OVCAR-5 ovarian; 52.1 µM in the experiment on SF-295 CNS. This compound also showed a TGI in the experiment on U251 CNS of 19.7 µM.

Turning to `Cc1ccc(-c2nc(C#N)c(S(=O)(=O)n3nc(C)cc3N)o2)cc1`, the GI50 is 4.3 µM with CAKI-1 renal; 2.55 µM with CCRF-CEM leukemia; 1.9 µM in the experiment with HCT-15 colon; 2.27 µM in the experiment with HOP-92 NSCLC; 1.25 µM in the experiment on K-562 leukemia; 19.5 µM in the experiment with NCI-H460 lung. Also, the GI50 in the experiment with OVCAR-5 ovarian is 12.4 µM; in the experiment on SF-295 CNS it was 15.8 µM; in the experiment on U251 CNS it was 13.6 µM. Besides, the TGI in the experiment on CAKI-1 renal stood at 14.2 µM; in the experiment with CCRF-CEM leukemia it was 7.83 µM; in the experiment on HCT-15 colon, 3.72 µM; in the experiment with HOP-92 NSCLC, 5.71 µM; with K-562 leukemia it was 4.3 µM; in the experiment on NCI-H460 lung it was 41.5 µM. Moreover, the TGI in the experiment on OVCAR-5 ovarian was determined as 27.5 µM; in the experiment on SF-295 CNS it was 30.5 µM; in the experiment on U251 CNS, 26.5 µM.

Take `O=c1cc(-c2ccccc2F)[nH]c2ccc(N3CCCC3)cc12`: the GI50 in the experiment on CCRF-CEM leukemia is under 0.001 µM; in the experiment with HCT-15 colon, under 0.001 µM; in the experiment with K-562 leukemia it was under 0.001 µM; in the experiment on NCI-H460 lung, under 0.001 µM; with OVCAR-5 ovarian, 2.53 µM; in the experiment with SK-MEL-5 melanoma, under 0.001 µM. Besides, in the experiment on U251 CNS, the GI50 was under 0.001 µM. In addition, the TGI in the experiment with CCRF-CEM leukemia, in the experiment with HOP-92 NSCLC, with K-562 leukemia and in the experiment with OVCAR-5 ovarian was over 100 µM in each case.

On to `CCOC(=O)c1c2c(n(Cc3ccc(Cl)cc3Cl)c1C)-c1nc[nH]c1C(=O)C2=O`, for which the GI50 was 13.4 µM with CAKI-1 renal; 0.651 µM with CCRF-CEM leukemia; 11 µM in the experiment on HCT-15 colon; 1.28 µM in the experiment on HOP-92 NSCLC; 3.21 µM with K-562 leukemia; 4.79 µM in the experiment on NCI-H460 lung. Besides, the GI50 is 20.5 µM in the experiment with SF-295 CNS, 13 µM in the experiment on SK-MEL-5 melanoma and 7.01 µM with U251 CNS. Moreover, the TGI in the experiment with CAKI-1 renal amounted to 31.8 µM; with CCRF-CEM leukemia, 2.29 µM; in the experiment with HCT-15 colon, 23 µM; with HOP-92 NSCLC, 2.75 µM; with K-562 leukemia, 12.3 µM; in the experiment on NCI-H460 lung it was 15.9 µM. For the same compound, the results for the TGI with SF-295 CNS, in the experiment with SK-MEL-5 melanoma and with U251 CNS were 92.2 µM, 25.7 µM and 19.5 µM, respectively.
